Measured values reported in US20110263510A1, “Methods of Inhibiting Cell Death or Inflammation in a Mammal” (priority 2006, published 2011).
Ends that are not written are not given here. Peptide text beside a SMILES is read from it. * marks the point of attachment. Cbz = O=C(OCc1ccccc1)*; CH2F = FC*

B1: rhA1/Bfl-1: human A1 minus 25 amino acids at the carboxy terminal and addition of 6 histidine on the remaining protein (protein, listed as Homo sapiens)
chain: MTDCEFGYIYRLAQDYLQCVLQIPQPGSGPSKTSRVLQNVAFSVQKEVEKNLKSCLDNVNVVSVDTARTLFNQVMEKEFEDGIINWGRIVTIFAFEGILIKKLLRQQIAPDVDTYKEISYFVAEFIMNNTGEWIRQNGGWENGFVKKFEPKSHHHHHH

Legend:
[1] = tested on: hind-limbs of C57BL/6 mice, ischemia-reperfusion injury; assay: hind-limb tourniquet ischemia (90 minutes) and reperfusion (3 hours), plasma creatine kinase; type: in vivo, mouse; details: pretreatment
Experimental: Skeletal muscle was made ischemic by applying a tourniquet to the hind-limbs of C57BL/6 mice for 90 minutes, then removing the tourniquet and allowing reperfusion for an additional 3 hours. Mice were treated with active peptide 1 (SEQ ID NO:17) or peptide 2 (SEQ ID NO:18) or peptide 3 (SEQ ID NO:19), or with the scrambled (control) peptide (SEQ ID NO:20). Peptide-1 (SEQ ID NO:17) is from the BH4 region of Bcl-2. Peptide-2 (SEQ ID NO:18) is from the first alpha helix of A1/Bfl-1. Peptide-3 (SEQ ID NO:19) is from the BH4 region of Bcl-XL. The amino acid sequences of peptide 1 (SEQ ID NO:17), peptide 2 (SEQ ID NO:18), peptide 3 (SEQ ID NO:19), and the scrambled (control) peptide (SEQ ID NO:20) are set forth in Table 1.
At the end of the 3 hours of reperfusion the mice were killed, and blood was taken for determination of plasma creatine kinase (CK) concentration. The CK concentration was used as an indicator of muscle injury. Elevated levels of CK indicate higher levels of muscle injury. […] The CK concentration for peptide 1 (SEQ ID NO:17) treated mice was 19,020+/−5481 IU/L (n=12) compared with control peptide (SEQ ID NO:20) where CK concentration was 60,530+/−5759 IU/L (n=12). The CK concentration for peptide 2 (SEQ ID NO:18) treated mice was 33,860+/−5997 IU/L (n=11) compared with control peptide (SEQ ID NO:20) where CK concentration was 69,430+/−11,170 IU/L (n=12). The CK concentration for peptide 3 (SEQ ID NO:19) treated mice was 49,500+/−3,901 IU/L (n=5) compared with control peptide (SEQ ID NO:20) where CK concentration was 80,880+/−11,430 IU/L (n=6).

[2] = tested on: skeletal muscle ischemia-reperfusion injury; details: Iwata et al., Blood 100:2077, 2002; cited from earlier work
[3] = tested on: previously ischemic muscle of mice; assay: tourniquet ischemia/reperfusion, skeletal muscle tissue viability by MTT; type: in vivo, mouse; details: measured the following day
Source text: The ability of a Bcl protein to inhibit cell death in a mammal, and/or to inhibit inflammation in a mammal concurrent with or after the onset of a condition expected to lead to cell death or inflammation, can be assessed, for example, in a mammal subjected to ischemia-reperfusion injury. As used herein, “determining,” “measuring,” and “assessing,” and “assaying” are used interchangeably and include both quantitative and qualitative determinations. For example, one or more of the following markers and/or assays can be used to assess the ability of a Bcl protein to inhibit cell death and/or inflammation in a mammal subjected to ischemia-reperfusion injury: 1. […] The viability of tissue subjected to I/R was measured using 3-(4,5-dimethylthiazol-2-yl)-2,5-diphenyl tetrazolium (MTT) (Ferrera et al., J Mol Cell Cardiol 25:1091, 1993). […]
Anesthetized mice were subjected to 90 minutes of tourniquet ischemia using a hemorrhoid ligator followed by reperfusion and were treated at various times by a subcutaneous injection of 1 microgram of either rhA1/Bfl-1 or rhBim, a pro-apoptotic Bcl-2 family member that lacks a BH4 or BH4-like domain (O'Connor et al., EMBO J. 17:384, 1998). The following day, mice were killed, the previously ischemic muscle removed, and tissue viability measured using 3-(4,5-dimethylthiazol-2-yl)-2,5-diphenyl tetrazolium (MTT). […]

[4] = tested on: C57BL/6 mice subjected to hind limb ischemia and reperfusion; assay: hind limb ischemia (aortic cross-clamp, 90 minutes) and reperfusion (3 hours), plasma creatine kinase; type: in vivo; details: 1 microgram/mouse intraperitoneally the day before, 12 mice per group
Experimental: Mouse skeletal muscle was made ischemic by cross-clamping the aorta distal to the renal artery for 90 minutes, then the clamp was removed and hind limb reperfusion continued for 3 hours. At the end of reperfusion (3 hours after clamp removal) the mice were killed, and the concentration of plasma creatine kinase (CK) was measured and used as an indicator of injury (creatine kinase concentration increases as a result of skeletal muscle injury).
Blood from EμT-Bcl-2 mice and their littermate control mice was drawn into heparin and plasma was extracted by centrifugation. One ml of plasma from EμT-Bcl-2 mice, or one ml of plasma from littermate control mice, was injected into the peritoneum of C57BL/6 mice the day before the mice were subjected to 90 minutes of ischemia and 3 hours of reperfusion as described in Example 1 herein. Blood was drawn from the mice and plasma CK concentration was determined at the end of reperfusion.
C57BL/6 mice were injected intraperitoneally with 1 μg per mouse of recombinant human Bcl-2 (rBcl-2) (SEQ ID NO:15) or 1 μg per mouse of recombinant human ubiquitin (rUbiquitin), or the vehicle solution for rBcl-2 the day before the mice were subjected to hind limb ischemia (90 minutes) and reperfusion (180 minutes) as described in Example 1. […]

[5] = experiment peptide 2 (n=11) versus control peptide (n=12)
[6] = experiment peptide 3 (n=5) versus control peptide (n=6)
[7] = experiment peptide 1 (n=12) versus control peptide (n=12)

Molecule | CK concentration [1, 5] | CK concentration [1, 6] | CK concentration [1, 7] | other results
FGYIYRLAQDYLQCVLQIPZPGSGP (FGYIYRLAQDYLQCVLQIPXPGSGP; X not resolved here; also: Z at 20 undefined) [peptide 2, from the first alpha helix of A1/Bfl-1] | 33,860+/−5997 IU/L | – | – | –
MSQSNRELVVDFLSYKLSQKGYSWSQF [peptide 3] | – | 49,500+/−3,901 IU/L | – | –
TWHMYGNQRDYIGDRSKIVYKLEYE [control peptide, scrambled (control) peptide, reference compound] | 69,430+/−11,170 IU/L | 80,880+/−11,430 IU/L | 60,530+/−5759 IU/L | –
CC(NC(=O)C(NC(=O)OCc1ccccc1)C(C)C)C(=O)NC(CC(=O)O)C(=O)CF (stereo not drawn) [z-VAD] (Cbz-Val-Ala-Asp-CH2F; configuration not given here) | – | – | – | DNA strand-breaks after extended ischemia and reperfusion of skeletal muscle [2]: prevents the strand-breaks; plasma CK concentration after extended ischemia and reperfusion of skeletal muscle [2]: reduces the plasma CK concentration
TGYDNREIVMKYIHYKLSQRGYEWD [peptide 1] | – | – | 19,020+/−5481 IU/L | –
B1 | – | – | – | tissue viability normalized to tissue dry weight (MTT), compared to rhBim ([3]; 1 microgram subcutaneous 4 hours after the start of reperfusion, FIG. 11): significantly greater tissue viability; tissue viability normalized to tissue dry weight (MTT), compared to rhBim ([3]; 1 microgram subcutaneous at the time of reperfusion, FIG. 10): greater viability; plasma creatine kinase concentration compared to mice injected with rUbiquitin [4]: significantly (p<0.05) lower; average plasma creatine kinase concentration ([4]; 90 min ischemia, 180 min reperfusion): 4,353+/−1284 IU/L
